Experimental data: patent US20220089592A1, “IMIDAZO[1,2-A]PYRIDINYL DERIVATIVES AS IRAK4 INHIBITORS” (priority 2019, published 2022)
Structures can show the parent of a compound that is named as a salt.

Target: T1, IRAK4 (Homo sapiens, UniProt Q9NWZ3)
T1 sequence (Q9NWZ3 1-460): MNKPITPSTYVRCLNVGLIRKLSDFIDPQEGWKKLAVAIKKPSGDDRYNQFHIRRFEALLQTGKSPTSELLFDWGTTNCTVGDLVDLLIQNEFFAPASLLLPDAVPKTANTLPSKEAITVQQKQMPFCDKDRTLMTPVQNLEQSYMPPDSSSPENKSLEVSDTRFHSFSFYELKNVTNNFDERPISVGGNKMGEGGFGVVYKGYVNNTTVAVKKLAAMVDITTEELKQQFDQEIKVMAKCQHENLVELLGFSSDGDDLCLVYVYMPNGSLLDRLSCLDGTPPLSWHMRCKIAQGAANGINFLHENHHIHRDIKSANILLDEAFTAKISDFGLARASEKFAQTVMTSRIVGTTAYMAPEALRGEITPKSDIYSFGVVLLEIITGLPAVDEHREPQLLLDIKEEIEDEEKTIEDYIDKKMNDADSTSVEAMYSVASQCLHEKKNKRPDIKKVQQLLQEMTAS
Assay: 2-hour 1 mM ATP IRAK4 Biochemical assay (as above, but with 100 pM IRAK4 and 1 mM ATP)
Conditions: IRAK4 MSD BIOCHEMICAL (1 mM ATP) IC50 (μM), 100 pM IRAK4, 2 hours
Summary of the method: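 Run with 100 pM IRAK4 and 1 mM ATP for 2 hours, quenched with EDTA pH 8. Phosphorylated biotinylated peptide captured on streptavidin MSD plates and detected with anti-phosphothreonine antibody plus Sulfo-Tag secondary by electrochemiluminescence.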

Row | IC50 [µM] | Compound
1 | 0.004 | CCOc1nc2nc(C3CCOCC3)cn2cc1NC(=O)c1cccc2c1OCC2 [Example 343, N-(7-ethoxy-2-(tetrahydro-2H-pyran-4-yl)imidazo[1,2-a]pyrimidin-6-yl)-2,3-dihydrobenzofuran-7-carboxamide]
2 | 0.001 | CCOc1nc2nc(C34COC(C)(C3)C4)cn2cc1NC(=O)c1cccc(C(F)F)n1 [Example 344, 6-(difluoromethyl)-N-(7-ethoxy-2-(1-methyl-2-oxabicyclo[2.1.1]hexan-4-yl)imidazo[1,2-a]pyrimidin-6-yl)picolinamide]
3 | 0.001 | COc1ncccc1C(=O)Nc1cn2cc(C34COC(C)(C3)C4)nc2nc1OC(C)C [Example 346, N-(7-isopropoxy-2-(1-methyl-2-oxabicyclo[2.1.1]hexan-4-yl)imidazo[1,2-a]pyrimidin-6-yl)-2-methoxynicotinamide]
4 | 0.001 | CC(C)Oc1nc2nc(C34COC(C)(C3)C4)cn2cc1NC(=O)c1cccc2ncnn12 [Example 348, N-(7-isopropoxy-2-(1-methyl-2-oxabicyclo[2.1.1]hexan-4-yl)imidazo[1,2-a]pyrimidin-6-yl)-[1,2,4]triazolo[1,5-a]pyridine-5-carboxamide]
5 | 0.001 | CC(C)Oc1nc2nc(C34COC(C)(C3)C4)cn2cc1NC(=O)c1cnn2cccc(F)c12 [Example 349, 4-fluoro-N-(7-isopropoxy-2-(1-methyl-2-oxabicyclo[2.1.1]hexan-4-yl)imidazo[1,2-a]pyrimidin-6-yl)pyrazolo[1,5-a]pyridine-3-carboxamide]
6 | 0.006 | COc1ccccc1C(=O)Nc1cn2cc(C34COC(C)(C3)C4)nc2nc1OC1CC1 [Example 350, N-(7-cyclopropoxy-2-(1-methyl-2-oxabicyclo[2.1.1]hexan-4-yl)imidazo[1,2-a]pyrimidin-6-yl)-2-methoxybenzamide]
7 | 0.1 | COc1cc(NC(=O)c2cccc(C(F)F)n2)cn2c(F)c(C3CCOCC3)nc12 [Example 351, 6-(difluoromethyl)-N-(3-fluoro-8-methoxy-2-(tetrahydro-2H-pyran-4-yl)imidazo[1,2-a]pyridin-6-yl)picolinamide]
8 | 0.001 | CC(C)Oc1cc2nc(C3CCOCC3)c(F)n2cc1NC(=O)c1cccc(C(F)F)n1 [Example 352, 6-(difluoromethyl)-N-(3-fluoro-7-isopropoxy-2-(tetrahydro-2H-pyran-4-yl)imidazo[1,2-a]pyridin-6-yl)picolinamide]
9 | 0.011 | CC(C)Oc1cc2nc(C3CCOCC3)c(Cl)n2cc1NC(=O)c1cccc(C(F)F)n1 [Example 353, N-(3-chloro-7-isopropoxy-2-(tetrahydro-2H-pyran-4-yl)imidazo[1,2-a]pyridin-6-yl)-6-(difluoromethyl)picolinamide]
10 | 0.438 | CCOc1cc2nc(C(C)(C)O)c(Cl)n2cc1NC(=O)c1cccc(C(F)F)n1 [Example 354, N-(3-chloro-7-ethoxy-2-(2-hydroxypropan-2-yl)imidazo[1,2-a]pyridin-6-yl)-6-(difluoromethyl)picolinamide]
11 | 0.03 | CC12CC(c3cn4cc(NC(=O)c5cccc(C(F)F)n5)ccc4n3)(CO1)C2 [Example 357, 6-(difluoromethyl)-N-(2-(1-methyl-2-oxabicyclo[2.1.1]hexan-4-yl)imidazo[1,2-a]pyridin-6-yl)picolinamide]
12 | 0.011 | CCOc1cc2nc(C3CCOCC3)cn2cc1NC(=O)c1cccc(C2CCOC2)n1 (stereo not drawn) [Example 367, N-(7-ethoxy-2-(tetrahydro-2H-pyran-4-yl)imidazo[1,2-a]pyridin-6-yl)-6-(tetrahydrofuran-3-yl)picolinamide]
13 | 0.035 | COCc1cc2nc(C3CCOCC3)cn2cc1NC(=O)c1cccc(C)n1 [Example 371, N-(7-(methoxymethyl)-2-(tetrahydro-2H-pyran-4-yl)imidazo[1,2-a]pyridin-6-yl)-6-methylpicolinamide 2,2,2-trifluoroacetate]
14 | 0.002 | CCOc1cc2nc(C3C4COCC43)cn2cc1NC(=O)c1ccn(C2CC2(F)F)n1 (stereo not drawn) [Example 374, N-(2-(3-oxabicyclo[3.1.0]hexan-6-yl)-7-ethoxyimidazo[1,2-a]pyridin-6-yl)-1-(2,2-difluorocyclopropyl)-1H-pyrazole-3-carboxamide]
15 | 0.004 | CCOc1cc2nc(C3C4COCC43)cn2cc1NC(=O)c1coc(C2CC2)n1 (stereo not drawn) [Example 375, N-(2-(3-oxabicyclo[3.1.0]hexan-6-yl)-7-ethoxyimidazo[1,2-a]pyridin-6-yl)-2-cyclopropyloxazole-4-carboxamide]
16 | 0.009 | CCOc1cc2nc(C3C4COCC43)cn2cc1NC(=O)c1coc(C(F)F)n1 (stereo not drawn) [Example 376, N-(2-(3-oxabicyclo[3.1.0]hexan-6-yl)-7-ethoxyimidazo[1,2-a]pyridin-6-yl)-2-(difluoromethyl)oxazole-4-carboxamide 2,2,2-trifluoroacetate]
17 | 0.001 | CCOc1cc2nc(C3C4COCC43)cn2cc1NC(=O)c1csc(C(F)(F)F)n1 (stereo not drawn) [Example 377, N-(2-(3-oxabicyclo[3.1.0]hexan-6-yl)-7-ethoxyimidazo[1,2-a]pyridin-6-yl)-2-(trifluoromethyl)thiazole-4-carboxamide 2,2,2-trifluoroacetate]
18 | 0.002 | CC(C)Oc1cc2nc(C3CCOCC3)cn2cc1NC(=O)c1cccc2c1OCC2 [Example 379, N-(7-isopropoxy-2-(tetrahydro-2H-pyran-4-yl)imidazo[1,2-a]pyridin-6-yl)-2,3-dihydrobenzofuran-7-carboxamide]
19 | 0.002 | CC(C)Oc1cc2nc(C3CCOCC3)cn2cc1NC(=O)c1cccc(C2CCOC2)n1 (stereo not drawn) [Example 380, N-(7-isopropoxy-2-(tetrahydro-2H-pyran-4-yl)imidazo[1,2-a]pyridin-6-yl)-6-(tetrahydrofuran-3-yl)picolinamide hydrochloride]
20 | 0.004 | CC(C)Oc1cc2nc(C3CCOCC3)cn2cc1NC(=O)c1cc2ccccn2n1 [Example 381, N-(7-isopropoxy-2-(tetrahydro-2H-pyran-4-yl)imidazo[1,2-a]pyridin-6-yl)pyrazolo[1,5-a]pyridine-2-carboxamide 2,2,2-trifluoroacetate]
21 | 0.022 | CC(C)Oc1cc2nc(C3CCOCC3)cn2cc1NC(=O)c1cc2ncccn2n1 [Example 382, N-(7-isopropoxy-2-(tetrahydro-2H-pyran-4-yl)imidazo[1,2-a]pyridin-6-yl)pyrazolo[1,5-a]pyrimidine-2-carboxamide 2,2,2-trifluoroacetate]
22 | 0.014 | COCCn1ccc(C(=O)Nc2cn3cc(C4CCOCC4)nc3cc2OC(C)C)n1 [Example 383, N-(7-isopropoxy-2-(tetrahydro-2H-pyran-4-yl)imidazo[1,2-a]pyridin-6-yl)-1-(2-methoxyethyl)-1H-pyrazole-3-carboxamide 2,2,2-trifluoroacetate]
23 | 0.004 | CC(C)Oc1cc2nc(C3CCOCC3)cn2cc1NC(=O)c1ccn(C)n1 [Example 384, N-(7-isopropoxy-2-(tetrahydro-2H-pyran-4-yl)imidazo[1,2-a]pyridin-6-yl)-1-methyl-1H-pyrazole-3-carboxamide]
24 | 0.002 | Cc1nc(C(=O)Nc2cn3cc(C4CCOCC4)nc3cc2OC(C)C)co1 [Example 386, N-(7-isopropoxy-2-(tetrahydro-2H-pyran-4-yl)imidazo[1,2-a]pyridin-6-yl)-2-methyloxazole-4-carboxamide]
25 | 0.001 | CC(C)Oc1cc2nc(C3CCOCC3)cn2cc1NC(=O)c1coc(C2CCOCC2)n1 [Example 387, N-(7-isopropoxy-2-(tetrahydro-2H-pyran-4-yl)imidazo[1,2-a]pyridin-6-yl)-2-(tetrahydro-2H-pyran-4-yl)oxazole-4-carboxamide 2,2,2-trifluoroacetate]
26 | 0.016 | COc1cccc(C(=O)Nc2cn3cc(C4CCOCC4)nc3cc2C(F)F)n1 [Example 389, N-(7-(difluoromethyl)-2-(tetrahydro-2H-pyran-4-yl)imidazo[1,2-a]pyridin-6-yl)-6-methoxypicolinamide 2,2,2-trifluoroacetate]
27 | 0.072 | Cn1ccc(C(=O)Nc2cn3cc(C45COC(C)(C4)C5)nc3cc2C(F)F)n1 [Example 390, N-(7-(difluoromethyl)-2-(1-methyl-2-oxabicyclo[2.1.1]hexan-4-yl)imidazo[1,2-a]pyridin-6-yl)-1-methyl-1H-pyrazole-3-carboxamide 2,2,2-trifluoroacetate]
28 | 0.021 | COc1ncccc1C(=O)Nc1cn2cc(C34COC(C)(C3)C4)nc2cc1C(F)F [Example 391, N-(7-(difluoromethyl)-2-(1-methyl-2-oxabicyclo[2.1.1]hexan-4-yl)imidazo[1,2-a]pyridin-6-yl)-2-methoxynicotinamide 2,2,2-trifluoroacetate]
29 | 0.008 | Cc1cccc(C(=O)Nc2cn3cc(C45COC(C)(C4)C5)nc3cc2C(F)F)n1 [Example 392, N-(7-(difluoromethyl)-2-(1-methyl-2-oxabicyclo[2.1.1]hexan-4-yl)imidazo[1,2-a]pyridin-6-yl)-6-methylpicolinamide 2,2,2-trifluoroacetate]
30 | 0.003 | CC12CC(c3cn4cc(NC(=O)c5cccc(C(F)F)n5)c(C(F)F)cc4n3)(CO1)C2 [Example 393, 6-(difluoromethyl)-N-(7-(difluoromethyl)-2-(1-methyl-2-oxabicyclo[2.1.1]hexan-4-yl)imidazo[1,2-a]pyridin-6-yl)picolinamide 2,2,2-trifluoroacetate]
